According to US20230143604A1, “QW DOSING OF GIP RECEPTOR AGONIST PEPTIDE COMPOUNDS AND USES THEREOF” (TAKEDA PHARMACEUTICAL COMPANY LIMITED, priority 2020, published 2023):
Starred links: 1 amine or outer side, 2 acyl side, 3 side chain; linkers in the order of their positions; H or OH if unused. Non-standard residues stand in square brackets, D forms with d. Residues, ends and D or L forms follow the SMILES beside them. Groups on a side chain read outwards from the residue. *: point of attachment. C18 diacid = O=C(O)CCCCCCCCCCCCCCCCC(=O)*; γGlu = O=C(O)[C@H](CCC(=O)[*:2])N[*:1]; NMeY = CN[C@@H](Cc1ccc(O)cc1)C(=O)O; AEEA = NCCOCCOCC(=O)O; Aib = CC(C)(N)C(=O)O

Assay: Solubility in phosphate buffer pH 7.4
Details: pH 7.4, aqueous buffer
How it was run: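 3 mg of peptide treated with 100 μL portions of 200 mM phosphate buffer pH 7.4, sonicating/vortexing up to 1 min, with further buffer added until fully dissolved. Solubility then quantified by HPLC.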

[1] = pH 7.4 Phosphate Buffer - Solubility, 200 mM Phosphate buffer pH 7.4

Row | Compound | solubility [1] [mg/mL] | solubility [mg/mL] | other results
1 | CC[C@H](C)[C@H](NC(=O)[C@H](CO)NC(=O)[C@H](Cc1ccc(O)cc1)NC(=O)[C@H](CC(C)C)NC(=O)[C@H](CO)NC(=O)[C@@H](NC(=O)[C@H](Cc1ccccc1)NC(=O)[C@@H](NC(=O)CNC(=O)[C@H](CCC(=O)O)NC(=O)C(C)(C)NC(=O)[C@H](Cc1ccc(O)cc1)NC)[C@@H](C)O)[C@@H](C)CC)C(=O)N[C@@H](C)C(=O)N[C@@H](CC(C)C)C(=O)N[C@@H](CC(=O)O)C(=O)N[C@@H](CCCNC(=N)N)C(=O)N[C@@H](CCCCNC(=O)CNC(=O)CNC(=O)CNC(=O)CNC(=O)CNC(=O)CNC(=O)CCCCCCCCCCCCCCCCC(=O)O)C(=O)N[C@@H](Cc1c[nH]cn1)C(=O)N[C@@H](CCC(N)=O)C(=O)NC(C)(C)C(=O)N[C@@H](CC(N)=O)C(=O)N[C@@H](Cc1ccccc1)C(=O)N[C@H](C(=O)N[C@@H](CC(N)=O)C(=O)N[C@@H](Cc1c[nH]c2ccccc12)C(=O)N[C@@H](CC(C)C)C(=O)N[C@@H](CC(C)C)C(=O)N[C@@H](C)C(=O)N[C@@H](CCC(N)=O)C(=O)N[C@@H](CCCNC(=N)N)C(=O)N1CCC[C@H]1C(=O)N[C@@H](CO)C(=O)N[C@@H](CO)C(=O)NCC(=O)N[C@@H](C)C(=O)N1CCC[C@H]1C(=O)N1CCC[C@H]1C(=O)N1CCC[C@H]1C(=O)N[C@@H](CO)C(=O)N[C@@H](CCCNC(=N)N)C(N)=O)C(C)C [Compound 277] | – | – | solubility (phosphate buffer): < 15 mg/mL
2 | CC[C@H](C)[C@H](NC(=O)[C@H](CO)NC(=O)[C@H](Cc1ccc(O)cc1)NC(=O)[C@H](CC(=O)O)NC(=O)[C@H](CO)NC(=O)[C@@H](NC(=O)[C@H](Cc1ccccc1)NC(=O)[C@@H](NC(=O)CNC(=O)[C@H](CCC(N)=O)NC(=O)C(C)(C)NC(=O)[C@H](Cc1ccc(O)cc1)NC)[C@@H](C)O)[C@@H](C)CC)C(=O)N[C@@H](C)C(=O)N[C@@H](CC(C)C)C(=O)N[C@@H](CC(=O)O)C(=O)N[C@@H](CCCNC(=N)N)C(=O)N[C@@H](CCCCNC(=O)CNC(=O)CNC(=O)CNC(=O)CNC(=O)CNC(=O)CNC(=O)CCCCCCCCCCCCCCCCC(=O)O)C(=O)N[C@@H](Cc1c[nH]cn1)C(=O)N[C@@H](CCC(N)=O)C(=O)NC(C)(C)C(=O)N[C@@H](CC(N)=O)C(=O)N[C@@H](Cc1ccccc1)C(=O)N[C@H](C(=O)N[C@@H](CC(N)=O)C(=O)N[C@@H](Cc1c[nH]c2ccccc12)C(=O)N[C@@H](CC(C)C)C(=O)N[C@@H](CC(C)C)C(=O)N[C@@H](C)C(=O)N[C@@H](CCC(N)=O)C(=O)N[C@@H](CCCNC(=N)N)C(=O)N1CCC[C@H]1C(=O)N[C@@H](CO)C(=O)N[C@@H](CO)C(=O)NCC(=O)N[C@@H](C)C(=O)N1CCC[C@H]1C(=O)N1CCC[C@H]1C(=O)N1CCC[C@H]1C(=O)N[C@@H](CO)C(=O)N[C@@H](CCCNC(=N)N)C(N)=O)C(C)C [Compound 278] | < 15 | – | –
3 | CC[C@H](C)[C@H](NC(=O)[C@H](CO)NC(=O)[C@H](Cc1ccc(O)cc1)NC(=O)[C@H](CC(=O)O)NC(=O)[C@H](CO)NC(=O)[C@@H](NC(=O)[C@H](Cc1ccccc1)NC(=O)[C@@H](NC(=O)CNC(=O)[C@H](CCC(=O)O)NC(=O)C(C)(C)NC(=O)[C@H](Cc1ccc(O)cc1)NC)[C@@H](C)O)[C@@H](C)CC)C(=O)N[C@@H](C)C(=O)N[C@@H](CC(C)C)C(=O)N[C@@H](CO)C(=O)N[C@@H](CCCNC(=N)N)C(=O)N[C@@H](CCCCNC(=O)CNC(=O)CNC(=O)CNC(=O)CNC(=O)CNC(=O)CNC(=O)CCCCCCCCCCCCCCCCC(=O)O)C(=O)N[C@@H](Cc1c[nH]cn1)C(=O)N[C@@H](CCC(N)=O)C(=O)NC(C)(C)C(=O)N[C@@H](CC(N)=O)C(=O)N[C@@H](Cc1ccccc1)C(=O)N[C@H](C(=O)N[C@@H](CC(N)=O)C(=O)N[C@@H](Cc1c[nH]c2ccccc12)C(=O)N[C@@H](CC(C)C)C(=O)N[C@@H](CC(C)C)C(=O)N[C@@H](C)C(=O)N[C@@H](CCC(N)=O)C(=O)N[C@@H](CCCNC(=N)N)C(=O)N1CCC[C@H]1C(=O)N[C@@H](CO)C(=O)N[C@@H](CO)C(=O)NCC(=O)N[C@@H](C)C(=O)N1CCC[C@H]1C(=O)N1CCC[C@H]1C(=O)N1CCC[C@H]1C(=O)N[C@@H](CO)C(=O)N[C@@H](CCCNC(=N)N)C(N)=O)C(C)C [Compound 279] | < 15 | – | –
4 | CC[C@H](C)[C@H](NC(=O)[C@H](CO)NC(=O)[C@H](Cc1ccc(O)cc1)NC(=O)[C@H](CC(=O)O)NC(=O)[C@H](CO)NC(=O)[C@@H](NC(=O)[C@H](Cc1ccccc1)NC(=O)[C@@H](NC(=O)CNC(=O)[C@H](CCC(=O)O)NC(=O)C(C)(C)NC(=O)[C@H](Cc1ccc(O)cc1)NC)[C@@H](C)O)[C@@H](C)CC)C(=O)N[C@@H](C)C(=O)N[C@@H](CC(C)C)C(=O)N[C@@H](CCCCN)C(=O)N[C@@H](CCCNC(=N)N)C(=O)N[C@@H](CCCCNC(=O)CNC(=O)CNC(=O)CNC(=O)CNC(=O)CNC(=O)CNC(=O)CCCCCCCCCCCCCCCCC(=O)O)C(=O)N[C@@H](Cc1c[nH]cn1)C(=O)N[C@@H](CCC(N)=O)C(=O)NC(C)(C)C(=O)N[C@@H](CC(N)=O)C(=O)N[C@@H](Cc1ccccc1)C(=O)N[C@H](C(=O)N[C@@H](CC(N)=O)C(=O)N[C@@H](Cc1c[nH]c2ccccc12)C(=O)N[C@@H](CC(C)C)C(=O)N[C@@H](CC(C)C)C(=O)N[C@@H](C)C(=O)N[C@@H](CCC(N)=O)C(=O)N[C@@H](CCCNC(=N)N)C(=O)N1CCC[C@H]1C(=O)N[C@@H](CO)C(=O)N[C@@H](CO)C(=O)NCC(=O)N[C@@H](C)C(=O)N1CCC[C@H]1C(=O)N1CCC[C@H]1C(=O)N1CCC[C@H]1C(=O)N[C@@H](CO)C(=O)N[C@@H](CCCNC(=N)N)C(N)=O)C(C)C [Compound 280] | < 15 | – | –
5 | CC[C@H](C)[C@H](NC(=O)[C@H](CO)NC(=O)[C@H](Cc1ccc(O)cc1)NC(=O)[C@H](CC(=O)O)NC(=O)[C@H](CO)NC(=O)[C@@H](NC(=O)[C@H](Cc1ccccc1)NC(=O)[C@@H](NC(=O)CNC(=O)[C@H](CCC(=O)O)NC(=O)C(C)(C)NC(=O)[C@H](Cc1ccc(O)cc1)NC)[C@@H](C)O)[C@@H](C)CC)C(=O)N[C@@H](C)C(=O)N[C@@H](CCCCNC(=O)CNC(=O)CNC(=O)CNC(=O)CNC(=O)CNC(=O)CCCCCCCCCCCCCCCCC(=O)O)C(=O)N[C@@H](CC(=O)O)C(=O)N[C@@H](CCCCN)C(=O)NC(C)(C)C(=O)N[C@@H](Cc1c[nH]cn1)C(=O)N[C@@H](CCC(N)=O)C(=O)NC(C)(C)C(=O)N[C@@H](CC(N)=O)C(=O)N[C@@H](Cc1ccccc1)C(=O)N[C@H](C(=O)N[C@@H](CC(N)=O)C(=O)N[C@@H](Cc1c[nH]c2ccccc12)C(=O)N[C@@H](CC(C)C)C(=O)N[C@@H](CC(C)C)C(=O)N[C@@H](C)C(=O)N[C@@H](CCC(N)=O)C(=O)N[C@@H](CCCCN)C(=O)NCC(=O)N[C@@H](CCCCN)C(=O)N[C@@H](CCCCN)C(=O)N[C@@H](CC(N)=O)C(=O)N[C@@H](CC(N)=O)C(=O)N[C@@H](Cc1c[nH]c2ccccc12)C(=O)N[C@@H](CCCCN)C(=O)N[C@@H](Cc1c[nH]cn1)C(=O)N[C@@H](CC(N)=O)C(N)=O)C(C)C [Compound 281] | – | < 15 | –
6 | CC[C@H](C)[C@H](NC(=O)[C@H](Cc1ccccc1)NC(=O)[C@@H](NC(=O)CNC(=O)[C@H](CCC(=O)O)NC(=O)C(C)(C)NC(=O)[C@H](Cc1ccc(O)cc1)NC)[C@@H](C)O)C(=O)N[C@@H](CO)C(=O)N[C@@H](CC(=O)O)C(=O)N[C@@H](Cc1ccc(O)cc1)C(=O)N[C@@H](CO)C(=O)N[C@H](C(=O)NC(C)(C)C(=O)N[C@@H](CC(C)C)C(=O)N[C@@H](CC(=O)O)C(=O)N[C@@H](CCCNC(=N)N)C(=O)N[C@@H](CCCCNC(=O)CNC(=O)CNC(=O)CNC(=O)CNC(=O)CNC(=O)CCCCCCCCCCCCCCCCC(=O)O)C(=O)N[C@@H](C)C(=O)N[C@@H](CCC(N)=O)C(=O)NC(C)(C)C(=O)N[C@@H](CC(=O)O)C(=O)N[C@@H](Cc1ccccc1)C(=O)N[C@H](C(=O)N[C@@H](CC(N)=O)C(=O)N[C@@H](Cc1c[nH]c2ccccc12)C(=O)N[C@@H](CC(C)C)C(=O)N[C@@H](CC(C)C)C(=O)N[C@@H](C)C(=O)N[C@@H](CCC(N)=O)C(=O)N[C@@H](CCCNC(=N)N)C(=O)NCC(=O)O)C(C)C)[C@@H](C)CC [Compound 284] | – | < 15 | –
7 | CC[C@H](C)[C@H](NC(=O)[C@H](CCCNC(=N)N)NC(=O)[C@H](CC(=O)O)NC(=O)[C@H](CCCCNC(=O)CNC(=O)CNC(=O)CNC(=O)CNC(=O)CNC(=O)CCCCCCCCCCCCCCCCC(=O)O)NC(=O)[C@H](C)NC(=O)[C@@H](NC(=O)[C@H](CO)NC(=O)[C@H](Cc1ccc(O)cc1)NC(=O)[C@H](CC(=O)O)NC(=O)[C@H](CO)NC(=O)[C@@H](NC(=O)[C@H](Cc1ccccc1)NC(=O)[C@@H](NC(=O)CNC(=O)[C@H](CCC(=O)O)NC(=O)C(C)(C)NC(=O)[C@H](Cc1ccc(O)cc1)NC)[C@@H](C)O)[C@@H](C)CC)[C@@H](C)CC)C(=O)N[C@@H](C)C(=O)N[C@@H](CCC(N)=O)C(=O)N[C@@H](CCC(N)=O)C(=O)N[C@@H](CC(=O)O)C(=O)N[C@@H](Cc1ccccc1)C(=O)N[C@H](C(=O)N[C@@H](CC(N)=O)C(=O)N[C@@H](Cc1c[nH]c2ccccc12)C(=O)N[C@@H](CC(C)C)C(=O)N[C@@H](CC(C)C)C(=O)N[C@@H](C)C(=O)N[C@@H](CCC(N)=O)C(=O)N[C@@H](CCCNC(=N)N)C(=O)N1CCC[C@H]1C(=O)N[C@@H](CO)C(=O)N[C@@H](CO)C(=O)NCC(=O)O)C(C)C [Compound 285] | – | < 6 | –
8 | CC[C@H](C)[C@H](NC(=O)[C@H](CCCNC(=N)N)NC(=O)[C@H](CC(=O)O)NC(=O)[C@H](CC(C)C)NC(=O)[C@H](C)NC(=O)[C@@H](NC(=O)[C@H](CO)NC(=O)[C@H](Cc1ccc(O)cc1)NC(=O)[C@H](CC(=O)O)NC(=O)[C@H](CO)NC(=O)[C@@H](NC(=O)[C@H](Cc1ccccc1)NC(=O)[C@@H](NC(=O)CNC(=O)[C@H](CCC(=O)O)NC(=O)C(C)(C)NC(=O)[C@H](Cc1ccc(O)cc1)NC)[C@@H](C)O)[C@@H](C)CC)[C@@H](C)CC)C(=O)N[C@@H](C)C(=O)N[C@@H](CCC(N)=O)C(=O)N[C@@H](CCC(N)=O)C(=O)N[C@@H](CCCCNC(=O)COCCOCCNC(=O)COCCOCCNC(=O)CC[C@H](NC(=O)CC[C@H](NC(=O)CCCCCCCCCCCCCCCCC(=O)O)C(=O)O)C(=O)O)C(=O)N[C@@H](Cc1ccccc1)C(=O)N[C@H](C(=O)N[C@@H](CC(N)=O)C(=O)N[C@@H](Cc1c[nH]c2ccccc12)C(=O)N[C@@H](CC(C)C)C(=O)N[C@@H](CC(C)C)C(=O)N[C@@H](C)C(=O)N[C@@H](CCC(N)=O)C(=O)N[C@@H](CCCNC(=N)N)C(=O)NCC(=O)O)C(C)C [Compound 286] (H-[NMeY][Aib]EGTFISDYSIALDRIAQQK([AEEA-AEEA-γGlu-γGlu-C18 diacid])FVNWLLAQRG-OH) | – | < 6 | –
